Reference: PMC4865535, “Effect of carbamazepine on dolutegravir pharmacokinetics and dosing recommendation” (European Journal of Clinical Pharmacology, 2016)
Values joined by “and” are separate entries in the source; they are usually repeats but may differ in a detail not shown here. Identical values can stand only once. Like-named read-outs stand apart in the source and are kept apart here. Blank lines part the entries; values can stand above or below the compound they belong to.

Assays:
[1] = parameters: method as in ref 11 = [11]; 11. Tegretol ® (carbamazepine) [package insert]. East Hanover: Novartis; 2014; conditions: cited from earlier work
[2] = Safety evaluations (adverse events, laboratory tests) in the crossover study; assay type: in vivo, human; conditions: for Subjects who experienced at least one AE: by treatment period; for Drug-related adverse events: ALT increased / Drug-related adverse events: Any event / Drug-related adverse events: Asthenia / Drug-related adverse events: Cognitive disorder / Drug-related adverse events: Drug reaction with eosinophilia and systemic symptoms / Drug-related adverse events: Fatigue / Drug-related adverse events: Headache / Drug-related adverse events: Hyponatremia / Drug-related adverse events: Leukopenia / Drug-related adverse events: Lymphopenia / Drug-related adverse events: Nausea / Drug-related adverse events: Pain in extremity / Drug-related adverse events: Photosensitivity reaction / Drug-related adverse events: Pyrexia / Drug-related adverse events: Rash maculopapular / Drug-related adverse events: Thirst / Drug-related adverse events: Thrombocytopenia: DTG alone n = 16, CBZ alone n = 16, DTG + CBZ n = 14
Experimental: Safety evaluations included the monitoring of adverse events (AEs), physical examinations, clinical chemistry laboratory tests, vital signs, and electrocardiograms. Additionally, assessment of Columbia suicide severity rating scale scores was performed throughout the study, because CBZ exposure (along with exposure to several other AEDs) has been associated with increased risk of suicidal ideation and depression.

P-glycoprotein (P-gp) = system: P-glycoprotein (P-gp); parameters: method as in PMID 23132334; conditions: cited from earlier work
[3] = Steady-state plasma DTG pharmacokinetics with and without CBZ (phase I open-label fixed-sequence crossover study); assay type: in vivo, human; conditions: for half-life: read-out: t1/2 (terminal elimination half-life) of DTG, geometric mean (CV%) (converted)
Experimental: This was a phase I, single-site, open-label, fixed-sequence, crossover study with three treatment periods to evaluate the effect of an oral extended-release formulation of CBZ on the steady-state PK of orally administered DTG in 16 healthy subjects. The study was conducted in accordance with the principles of the Declaration of Helsinki. A written informed consent was obtained from all subjects, and the protocol was approved by the institutional review board of the study site. The trial was registered at ClinicalTrials.gov (NCT01967771; protocol number: 200901). During period 1, subjects received DTG 50 mg once daily as a single agent for days 1 to 5. During period 2, subjects received CBZ alone and the dose was escalated: 100 mg twice daily for days 1 to 3, 200 mg twice daily for days 4 to 6, and 300 mg twice daily for days 7 to 16. During period 3, DTG 50 mg once daily was co-administered with CBZ 300 mg twice daily for days 1 to 5. There was no washout between treatment periods. As CBZ is recommended to be given with food per product information, all doses in the testing unit, including those on PK collection days, were administered orally in the morning 30 min after the start of the moderate-fat meal, and subjects were asked to do the same when dosing outside the unit. Subjects were housed at the clinical research unit from period 1, day 1, until the morning of period 2, day 8, as well as from period 2, day 16, through period 3, day 6. Phone call reminders and pill counts were employed when subjects self-administered CBZ as outpatients during period 2, days 8 to 16. […] Plasma samples were analyzed for DTG by PPD, Inc. (Middleton, WI) using a validated analytical method based on protein precipitation with acetonitrile containing the stable isotope-labeled internal standard (GSK1349572-d7-^15N), followed by high-performance liquid chromatography/tandem mass spectrometry analysis. The lower limit of quantification for DTG in plasma was 20 ng/mL, and the upper limit of quantification was 20,000 ng/mL. Precision and accuracy were evaluated by replicate analyses of human plasma quality control samples prepared at five concentrations: 60, 160, 640, 2400, and 15,200 ng/mL. Precision, measured as the percent coefficient of variation, ranged from 3.0 to 5.9 % across the quality control range. […] Both were within acceptance standards of 15 %. A non-compartmental PK analysis of the DTG concentration-time data was conducted by Phast Clinical Data, Inc. (Raleigh, NC). Pharmacokinetic analyses of plasma DTG concentration-time data were analyzed using Model 200 (for extravascular administration) of Phoenix WinNonlin version 6.3 (Pharsight Corporation, St. Louis, MO). Plasma PK parameters for DTG were calculated using actual elapsed times from dosing. The individual PK parameters that were determined included area under the curve from time zero to the end of the dosing interval (AUC(0-τ)), maximum observed plasma concentration (Cmax), plasma concentration at the end of the dosing interval (Cτ), oral clearance, and terminal half-life. This study was designed to estimate the magnitude of drug-interaction effect of CBZ on the PK parameters of DTG. No formal hypothesis was tested. Instead, an estimation approach was used to evaluate the effect of CBZ on DTG PK. Pharmacokinetic parameters were log-transformed and analyzed by analysis of variance to determine the point estimate and associated 90 % confidence intervals for the difference between test treatment (DTG + CBZ) and reference treatment (DTG alone). These values were then back-transformed to calculate the point and interval estimates for test-to-reference treatment ratios on the original scale. Geometric least-squares mean ratios and 90 % confidence intervals were generated by the mixed-effect model for within-subject treatment comparisons.

CYP1A2 = system: CYP1A2; parameters: method as in PMID 23132334; conditions: in vitro; cited from earlier work
CYP3A4 [4] = system: CYP3A4; parameters: method as in PMID 23132334; conditions: in vitro; cited from earlier work
CYP3A4 [5] = system: CYP3A4; parameters: method as in ref 1 = [1]; 1. Tivicay ® (dolutegravir) [package insert]. Research Triangle Park: ViiV Healthcare; 2014; conditions: midazolam as probe substrate for CYP3A4, healthy subjects; cited from earlier work
OATP1B1 = system: OATP1B1; parameters: method as in PMID 23132334; conditions: in vitro; cited from earlier work
MRP2 = system: MRP2; parameters: method as in PMID 23132334; conditions: in vitro; cited from earlier work
[6] = parameters: method as in PMID 25146692, PMID 23075918; conditions: DTG co-administered with tipranavir/ritonavir, efavirenz, and rifampin; cited from earlier work
[7] = system: breast cancer resistance protein; parameters: method as in PMID 23132334; conditions: in vitro; cited from earlier work
CYP2B6 = system: CYP2B6; parameters: method as in PMID 23132334; conditions: in vitro; cited from earlier work
OATP1B3 = system: OATP1B3; parameters: method as in PMID 23132334; conditions: in vitro; cited from earlier work
UGT1A1 = system: UGT1A1; parameters: method as in PMID 23132334; conditions: in vitro; cited from earlier work
CYP isozymes = system: CYP isozymes; parameters: method as in PMID 23132334; conditions: in vitro; cited from earlier work
P-gp = system: P-gp; parameters: method as in PMID 23132334; conditions: in vitro; cited from earlier work
[8] = system: cytochrome P450 (CYP) 3A4; parameters: method as in PMID 23132334; conditions: minor component; primarily metabolized by UGT1A1; cited from earlier work
UGT2B7 = system: UGT2B7; parameters: method as in PMID 23132334; conditions: in vitro; cited from earlier work
[9] = DTG 50 mg once daily alone, day 5 of period 1, n = 16
[10] = DTG co-administered with CBZ vs DTG alone
[11] = DTG co-administered with CBZ, 14 subjects with PK results in both periods

SMILES: NC(=O)N1c2ccccc2C=Cc2ccccc21 [CBZ, Carbamazepine]
half-life ([1]; following chronic dosing): 12 to 17 h | half-life ([1]; following single dosing): 25 to 65 h | Subjects who experienced at least one AE ([2]; healthy subjects): six | Drug-related adverse events: ALT increased ([2]; healthy subjects): 1 (6) n (%) | Drug-related adverse events: Any event ([2]; healthy subjects): 6 (38) n (%) | Drug-related adverse events: Asthenia ([2]; healthy subjects): 1 (6) n (%) | Drug-related adverse events: Cognitive disorder ([2]; healthy subjects): 1 (6) n (%) | Drug-related adverse events: Drug reaction with eosinophilia and systemic symptoms ([2]; healthy subjects): 1 (6) n (%) | Drug-related adverse events: Fatigue ([2]; healthy subjects): 0 n (%) | Drug-related adverse events: Headache ([2]; healthy subjects): 2 (13) n (%) | Drug-related adverse events: Hyponatremia ([2]; healthy subjects): 1 (6) n (%) | Drug-related adverse events: Leukopenia ([2]; healthy subjects): 1 (6) n (%) | Drug-related adverse events: Lymphopenia ([2]; healthy subjects): 1 (6) n (%) | Drug-related adverse events: Nausea ([2]; healthy subjects): 1 (6) n (%) | Drug-related adverse events: Pain in extremity ([2]; healthy subjects): 1 (6) n (%) | Drug-related adverse events: Photosensitivity reaction ([2]; healthy subjects): 0 n (%) | Drug-related adverse events: Pyrexia ([2]; healthy subjects): 1 (6) n (%) | Drug-related adverse events: Rash maculopapular ([2]; healthy subjects): 1 (6) n (%) | Drug-related adverse events: Thirst ([2]; healthy subjects): 1 (6) n (%) | Drug-related adverse events: Thrombocytopenia ([2]; healthy subjects): 2 (13) n (%) | White blood cell count (decrease) ([2]; one subject with suspected grade 2 hypersensitivity syndrome on 300 mg CBZ twice daily, period 2, baseline 8800 cells/mm^3): 3800 cells/mm^3 | Subjects permanently discontinued because of AEs ([2]; period 2 (CBZ alone)): Two | Platelet count (low) ([2]; same subject on 300 mg CBZ twice daily, 159,000 3 days before): 78,000 cells/mm^3 | ALT level (high) ([2]; same subject on 300 mg CBZ twice daily, grade 2): 151 IU/L

CL/F (oral clearance) of DTG, geometric mean (CV%) [3, 9]: 0.929 (21.4) L/h | Cτ of plasma DTG, geometric mean (CV%) [3, 9]: 1.20 (39.1) μg/mL | Increase of dolutegravir clearance [3, 10]: 95% | Reduction of geometric mean AUC(0-τ) of DTG [3, 10]: 49% | Reduction of geometric mean Cmax of DTG [3, 10]: 33% | Reduction of geometric mean Cτ of DTG [3, 10]: 73% and ~ 73% | Reduction in AUC(0-τ) on an individual subject basis [3, 11]: 27 to 58% | Reduction in Cτ on an individual subject basis [3, 11]: 53 to 82% | half-life ([3]; human, plasma, oral, DTG 50 mg once daily + CBZ 300 mg twice daily, day 5 of period 3, n = 14): 7.31 h | Cmax ([3]; human, plasma, oral, DTG 50 mg once daily alone, day 5 of period 1, n = 16, read-out: Cmax of plasma DTG, geometric mean (CV%)): 4160 ng/mL | half-life ([3]; human, plasma, oral, DTG 50 mg once daily alone, day 5 of period 1, n = 16): 12.9 h | AUC ([3]; human, plasma, DTG 50 mg once daily alone, day 5 of period 1, oral with moderate-fat meal, healthy subjects, n = 16, read-out: AUC(0-τ) of plasma DTG, geometric mean (CV%)): 53800 ng·h/mL
SMILES: C[C@@H]1CCO[C@H]2Cn3cc(C(=O)NCc4ccc(F)cc4F)c(=O)c(O)c3C(=O)N12 [DTG, Dolutegravir]
Substrate of P-gp (P-glycoprotein (P-gp)): substrate of P-glycoprotein | Induction of CYP1A2 (CYP1A2): not an inducer | Induction of CYP3A4 (CYP3A4 [4]): not an inducer | Effect on midazolam exposure (CYP3A4 [5]): no significant effect | Direct inhibition of OATP1B1 (OATP1B1): minimal or no direct inhibition | Direct inhibition of MRP2 (MRP2): minimal or no direct inhibition | Reduction of DTG AUC(0-τ) [6]: 36 to 49% | Reduction of DTG Cτ [6]: 72 to 76% | Direct inhibition of breast cancer resistance protein [7]: minimal or no direct inhibition | Induction of CYP2B6 (CYP2B6): not an inducer | Direct inhibition of OATP1B3 (OATP1B3): minimal or no direct inhibition | Direct inhibition of UGT1A1 (UGT1A1): minimal or no direct inhibition | Tolerability ([2]; DTG alone and co-administered with CBZ, healthy subjects): well tolerated | Subjects who experienced at least one AE ([2]; healthy subjects): No subjects experienced AEs | Drug-related adverse events: ALT increased ([2]; healthy subjects): 0 n (%) | Drug-related adverse events: Any event ([2]; healthy subjects): 0 n (%) | Drug-related adverse events: Asthenia ([2]; healthy subjects): 0 n (%) | Drug-related adverse events: Cognitive disorder ([2]; healthy subjects): 0 n (%) | Drug-related adverse events: Drug reaction with eosinophilia and systemic symptoms ([2]; healthy subjects): 0 n (%) | Drug-related adverse events: Fatigue ([2]; healthy subjects): 0 n (%) | Drug-related adverse events: Headache ([2]; healthy subjects): 0 n (%) | Drug-related adverse events: Hyponatremia ([2]; healthy subjects): 0 n (%) | Drug-related adverse events: Leukopenia ([2]; healthy subjects): 0 n (%) | Drug-related adverse events: Lymphopenia ([2]; healthy subjects): 0 n (%) | Drug-related adverse events: Nausea ([2]; healthy subjects): 0 n (%) | Drug-related adverse events: Pain in extremity ([2]; healthy subjects): 0 n (%) | Drug-related adverse events: Photosensitivity reaction ([2]; healthy subjects): 0 n (%) | Drug-related adverse events: Pyrexia ([2]; healthy subjects): 0 n (%) | Drug-related adverse events: Rash maculopapular ([2]; healthy subjects): 0 n (%) | Drug-related adverse events: Thirst ([2]; healthy subjects): 0 n (%) | Drug-related adverse events: Thrombocytopenia ([2]; healthy subjects): 0 n (%) | Direct inhibition of CYP isozymes (CYP isozymes): minimal or no direct inhibition | Direct inhibition of P-gp (P-gp): minimal or no direct inhibition | Component of metabolism via CYP3A4 [8]: approximately 10% | Direct inhibition of UGT2B7 (UGT2B7): minimal or no direct inhibition
